{"source": "patent US7744927B2", "about": "“Methods of promoting hematopoietic and mesenchymal cell proliferation and differentiation” (University of Southern California, priority 1997, dated 2010)", "key": {"[1]": {"system": "cells that express alkaline phosphatase (rat bone marrow MSC)", "assay": "Alkaline phosphatase expression by MSC in osteogenic medium", "type": "cell-based, Sprague Dawley rats", "details": "osteogenic medium 4 days, absorbance at 405 nm", "description": "Mesenchymal stem cells isolated from bone marrow and grown under appropriate conditions can express characteristics of multiple cell types, including cells involved in the generation of bone, cartilage, muscle and tendons. Osteogenic cells (cells that can form bone tissue) express the enzyme alkaline phosphatase when cultured in medium that drives them toward their osteogenic differentiation.\nBone marrow from female Sprague Dawley rats were harvested by flushing the femur with medium. The cells were placed in culture dishes 9 […], allowed to adhere overnight, and then placed in DMEM-LG medium containing antibiotics and 10% fetal calf serum together with varying concentrations of AII. At various times after culture initiation, the cells were washed with Tyrode's buffer and placed in osteogenic medium (DMEM-LG containing 10% fetal calf serum, 100 nM dexamethasone and 0.05 mM ascorbic acid) for 4 days prior to assessment of the level of alkaline phosphatase activity per well. Briefly, the wells were washed with Tyrode's buffer and 1 ml alkaline phosphatase substrate solution (50 mM glycine, pH 10.5, containing 1 mM magnesium chloride and 2.5 mM p-nitrophenyl phosphate) to each well. […] The absorbance of the resultant mixture at 405 nm was then determined via spectroscopy. The level of alkaline phosphatase activity is expressed as the level of absorbance per culture dish."}, "AT2 receptor": {"system": "AT2 receptor", "details": "cited from earlier work"}, "[2]": {"system": "Murine Peritoneal Macrophages", "assay": "Phagocytosis of opsonized yeast by murine peritoneal macrophages", "type": "cell-based, C57B1/6 mice", "details": "for # Macrophages with Yeast, Yeast # 0 / # Macrophages with Yeast, Yeast # 1-3 / # Macrophages with Yeast, Yeast # 4-6 / # Macrophages with Yeast, Yeast # 7-9 / # Yeast/MO / % Ingesting: 4 hours", "procedure": "Resident peritoneal macrophages have very little phagocytic activity. Exposure of macrophages to inflammatory or activating agents will increase this macrophage function. Resident peritoneal macrophages were harvested from C57B1/6 mice or Sprague Dawley rats and resuspended at a concentration of 1×10^6 cells/ml in phosphate buffered saline (PBS). Five separate 0.5 ml cell aliquots were placed on a glass coverslip in a 35 mm petri dish. Prior to incubation, either 0.5 ml of PBS, AII, or AII analogues or fragments at between 1-1000 ug/ml final concentration was added to the individual cover slips. The dishes containing the cover slips were then incubated at 37° C. for 4 hours, after which the cover slips were washed 3 to 6 times with PBS. Opsonized yeast particles (Sigma Chemical Co.) (yeast opsonized with adult serum from the same species as that under study) were added to the cover slips and incubated for 2 hours, after which the cover slips were again washed with PBS and inverted onto a glass slide. The number of macrophages that ingested yeast and the number of yeast per macrophage ingested was then determined microscopically. At least 100 macrophages per coverslip were counted. The data from this study are summarized in Tables 3 and 4 and FIGS. 1 and 2."}}}
{"substance": "Asp-Arg-Val-Tyr-Ile-His-Pro-Phe [AII, known pressor agent, commercially available]", "values": [{"measurement": "proliferation of cells that express alkaline phosphatase", "setting": "[1]", "result": "can accelerate the proliferation of cells that express alkaline phosphatase"}, {"measurement": "affinity for AT2 than AT1", "setting": "AT2 receptor", "result": 100, "unit": "times"}, {"measurement": "phagocytic capability of peritoneal macrophages", "setting": "[2]; 10 μg/ml or greater", "result": "tremendously increased"}, {"measurement": "# Macrophages with Yeast, Yeast # 0", "setting": "[2]; AII 1 μg/ml", "result": 100}, {"measurement": "# Macrophages with Yeast, Yeast # 1-3", "setting": "[2]; AII 1 μg/ml", "result": 1}, {"measurement": "# Macrophages with Yeast, Yeast # 4-6", "setting": "[2]; AII 1 μg/ml", "result": 0}, {"measurement": "# Macrophages with Yeast, Yeast # 7-9", "setting": "[2]; AII 1 μg/ml", "result": 0}, {"measurement": "# Yeast/MO", "setting": "[2]; AII 1 μg/ml", "result": 0.01}, {"measurement": "% Ingesting", "setting": "[2]; AII 1 μg/ml", "result": 1, "unit": "%"}, {"measurement": "# Macrophages with Yeast, Yeast # 0", "setting": "[2]; AII 10 μg/ml", "result": 100}, {"measurement": "# Macrophages with Yeast, Yeast # 1-3", "setting": "[2]; AII 10 μg/ml", "result": 3}, {"measurement": "# Macrophages with Yeast, Yeast # 4-6", "setting": "[2]; AII 10 μg/ml", "result": 4}, {"measurement": "# Macrophages with Yeast, Yeast # 7-9", "setting": "[2]; AII 10 μg/ml", "result": 0}, {"measurement": "# Yeast/MO", "setting": "[2]; AII 10 μg/ml", "result": 0.24}, {"measurement": "% Ingesting", "setting": "[2]; AII 10 μg/ml", "result": 6.5, "unit": "%"}, {"measurement": "# Macrophages with Yeast, Yeast # 0", "setting": "[2]; AII 100 μg/ml", "result": 100}, {"measurement": "# Macrophages with Yeast, Yeast # 1-3", "setting": "[2]; AII 100 μg/ml", "result": 10}, {"measurement": "# Macrophages with Yeast, Yeast # 4-6", "setting": "[2]; AII 100 μg/ml", "result": 10}, {"measurement": "# Macrophages with Yeast, Yeast # 7-9", "setting": "[2]; AII 100 μg/ml", "result": 0}, {"measurement": "# Yeast/MO", "setting": "[2]; AII 100 μg/ml", "result": 0.58}, {"measurement": "# Yeast/MO", "setting": "[2]; AII 1000 μg/ml (highest concentration)", "result": 1}, {"measurement": "# Macrophages with Yeast, Yeast # 0", "setting": "[2]; AII 1000 μg/ml", "result": 100}, {"measurement": "# Macrophages with Yeast, Yeast # 1-3", "setting": "[2]; AII 1000 μg/ml", "result": 20}, {"measurement": "# Macrophages with Yeast, Yeast # 4-6", "setting": "[2]; AII 1000 μg/ml", "result": 20}, {"measurement": "# Macrophages with Yeast, Yeast # 7-9", "setting": "[2]; AII 1000 μg/ml", "result": 0}]}
